These are literature values, as cited in article PMC4474874, “Effect of JAK Inhibitors on Release of CXCL9, CXCL10 and CXCL11 from Human Airway Epithelial Cells” (PLoS ONE, 2015).

In one data set the test system is JAK/JAK3. Set-up: method as in PMID 18094329. Conditions: cellular assay; cited from earlier work.
Data set [1] relates to JAK3. Set-up: method as in PMID 18094329. Conditions: read-out: IC50 against JAK3; cited from earlier work.
The subject of the next data set is AKT. Also on record: method as in PMID 18094329. The conditions noted are these: inactive or IC50 >30μM; read-out: IC50 against AKT; cited from earlier work.
For a further data set, the system named is AuroraA. Set-up: method as in PMID 18094329. Conditions: inactive or IC50 >30μM; read-out: IC50 against AuroraA; cited from earlier work.
The next data set relates to cdk2. Also on record: method as in PMID 18094329. The conditions noted are these: inactive or IC50 >30μM; read-out: IC50 against cdk2; cited from earlier work.
The test system of the next data set is CHK1. Also on record: method as in PMID 18094329. Conditions: inactive or IC50 >30μM; read-out: IC50 against CHK1; cited from earlier work.
The test system of a further data set is FGFR1. Also on record: method as in PMID 18094329. Conditions: inactive or IC50 >30μM; read-out: IC50 against FGFR1; cited from earlier work.
The next data set relates to GSK3b. Also on record: method as in PMID 18094329. Conditions: inactive or IC50 >30μM; read-out: IC50 against GSK3b; cited from earlier work.
The test system of a further data set is IKKb. Set-up: method as in PMID 18094329. Conditions: inactive or IC50 >30μM; read-out: IC50 against IKKb; cited from earlier work.
The test system of a further data set is INSR. Also on record: method as in PMID 18094329. The conditions noted are these: inactive or IC50 >30μM; read-out: IC50 against INSR; cited from earlier work.
Another data set relates to MAPK1. Set-up: method as in PMID 18094329. Conditions: inactive or IC50 >30μM; read-out: IC50 against MAPK1; cited from earlier work.
A further data set relates to MAPKAP-K2. Also on record: method as in PMID 18094329. Conditions: inactive or IC50 >30μM; read-out: IC50 against MAPKAP-K2; cited from earlier work.
Another data set concerns MASK. Also on record: method as in PMID 18094329. The conditions noted are these: inactive or IC50 >30μM; read-out: IC50 against MASK; cited from earlier work.
The next data set relates to MET. Also on record: method as in PMID 18094329. The conditions noted are these: inactive or IC50 >30μM; read-out: IC50 against MET; cited from earlier work.
The test system of another data set is PDK1. Set-up: method as in PMID 18094329. Conditions: inactive or IC50 >30μM; read-out: IC50 against PDK1; cited from earlier work.
The test system of another data set is PKCb. Also on record: method as in PMID 18094329. The conditions noted are these: inactive or IC50 >30μM; read-out: IC50 against PKCb; cited from earlier work.
The next data set relates to ROCK1. Also on record: method as in PMID 18094329. Conditions: inactive or IC50 >30μM; read-out: IC50 against ROCK1; cited from earlier work.
Data set [2] relates to TrkA. Set-up: method as in PMID 18094329. Conditions: inactive or IC50 >30μM; read-out: IC50 against TrkA; cited from earlier work.
A further data set has as its system PKA. Also on record: method as in PMID 18094329. The conditions noted are these: at concentrations >5μM; cited from earlier work.
A further data set deals with Lck. Also on record: method as in PMID 18094329. Conditions: at concentrations >5μM; cited from earlier work.
In data set [3] the test system is chronic lymphocytic leukaemia cells. Set-up: method as in PMID 20716767. The conditions noted are these: cited from earlier work.
The subject of data set [4] is ~30 other kinase pathways. Also on record: method as in PMID 18094329. The conditions noted are these: including AKT, GSK3β, IKKβ, IKKi, MAPK1, MAPKAP-K2, MASK, MET, and ROCK1; cited from earlier work.
The next data set relates to JAK2. Set-up: method as in Coe et al., 25. The conditions noted are these: ref Coe et al., 25, cited from earlier work.
The subject of data set [5] is JAK3. Set-up: method as in Coe et al., 25. Conditions: ref Coe et al., 25, cited from earlier work.
Data set [6] relates to human T lymphocytes (JAK1/2). Also on record: method as in Coe et al., 25. Conditions: ref Coe et al., 25; read-out: IC50 IL-12-induced IFNγ release by human T lymphocytes (JAK1/2); cited from earlier work.
Another data set has as its system MLK1. Also on record: method as in Coe et al., 25. Conditions: ATP at the Km; ref Coe et al., 25; cited from earlier work.
The subject of a further data set is MAP4K4. Set-up: method as in Coe et al., 25. Conditions: ATP at the Km; ref Coe et al., 25; cited from earlier work.
For data set [7], the system named is TrkA. Also on record: method as in Coe et al., 25. The conditions noted are these: ATP at the Km; ref Coe et al., 25; cited from earlier work.
The next data set deals with GSK3β. Also on record: method as in Coe et al., 25. Conditions: ATP at the Km; ref Coe et al., 25; cited from earlier work.
For a further data set, the system named is TAOK2. Set-up: method as in Coe et al., 25. Conditions: ATP at the Km; ref Coe et al., 25; cited from earlier work.
For a further data set, the target named is Protein kinase C β2. Conditions: read-out: IC50 Protein kinase C β2 Km; ATP at the Km; ref Coe et al., 25; cited from earlier work.

Read-outs that look alike come from different tables or passages of the source.

For `C[C@@H]1CCN(C(=O)N2CCCC2)C[C@@H]1N(C)c1ncnc2[nH]ccc12` [PF956980], the IC50 in the data set with JAK/JAK3 was 22 nM; with JAK3 [1], approximately 4 nM; in the data set on AKT it was more than 30000 nM; in the data set on AuroraA, more than 30000 nM; in the data set on cdk2, more than 30000 nM; in the data set with CHK1, more than 30000 nM. The IC50 with FGFR1, in the data set with GSK3b, in the data set on IKKb, in the data set with INSR, with MAPK1 and with MAPKAP-K2 was more than 30000 nM throughout. The IC50 in the data set with MASK, in the data set on MET, with PDK1, in the data set on PKCb, in the data set on ROCK1 and with TrkA [2] was more than 30000 nM throughout. In addition, in the data set on PKA, the “effect against PKA” value is “modest effects”. The “effect against Lck” value with Lck was “modest effects”. The “concentration effective against IL-4-induced cytotoxic resistance” value in data set [3] was ~ 0.3 μM. For the same compound, in data set [4], the “effect on ~30 other kinase pathways” value is “no effect”.
On to `CCc1cc(O)ccc1-c1ccc2c(-c3nc4ccccc4[nH]3)n[nH]c2c1` [PF1367550, 4-(3-(1H-benzo[d]imidazol-2-yl)-1H-indazol-6-yl)-3-ethylphenol], for which the IC50 is 1.3 nM in the data set with JAK2 (1mM ATP, read-out: IC50 JAK2 1 mM); 1 nM with JAK2 (ATP at the Km, read-out: IC50 JAK2 Km); 14 nM in the data set on JAK3 [5] (1mM ATP, read-out: IC50 JAK3 1 mM); 1 nM with JAK3 [5] (ATP at the Km, read-out: IC50 JAK3 Km); 45 nM in data set [6]; 54 nM in the data set on MLK1. The IC50 in the data set on MAP4K4 is 60 nM; in the data set on TrkA [7], 227 nM; with GSK3β, 617 nM; in the data set on TAOK2, 781 nM; on Protein kinase C β2, 665 nM.
